Experiments:
CDC2L5 = molecular target: T1, CDC2L5 (Homo sapiens, UniProt Q14004); experiment: scanMAX Kinase panel (DiscoverX); format: binding
T1 construct: purchased DiscoverX scanMAX Kinase panel
Protocol: (§1) Among the example compounds of the present invention, the enzyme (kinase) selectivity of the selected compounds of Examples 1 and 4 was measured by requesting DiscoverX. At this time, the experiment was performed using a panel for scanMAX™ Kinase. The concentration of the drug treated to the enzyme was 1 μM in DMSO, and the percentage control (% control) was determined by the method shown in Equation 1 below. (Example Compound−Positive Control)/(Negative Control−Positive control)×100 [Equation 1]
In addition, if the enzyme selectivity of the compound of the present invention was less than the percentage control of 35% (<35%) for each enzyme, it was judged to have activity for the enzyme.

[1] = molecular target: T2, ABL1(Q252H)-phosphorylated (Homo sapiens, UniProt P00519, Q252H); experiment: scanMAX Kinase panel (DiscoverX); format: binding; details: read-out: % Cont @ 1 uM
T2 construct: purchased DiscoverX
Protocol: as §1

ABL1-phosphorylated = molecular target: T3, ABL1-phosphorylated (Homo sapiens, UniProt P00519); experiment: scanMAX Kinase panel (DiscoverX); format: binding; details: read-out: % Cont @ 1 uM
T3 construct: purchased DiscoverX scanMAX Kinase panel
Protocol: as §1

ABL2 = molecular target: T4, ABL2 (Homo sapiens, UniProt P42684); experiment: scanMAX Kinase panel (DiscoverX); format: binding; details: read-out: % Cont @ 1 uM
T4 construct: purchased DiscoverX scanMAX Kinase panel
Protocol: as §1

AURKB = molecular target: T5, AURKB (Homo sapiens, UniProt Q96GD4); experiment: scanMAX Kinase panel (DiscoverX); format: binding; details: read-out: % Cont @ 1 uM
T5 construct: purchased DiscoverX scanMAX Kinase panel
Protocol: as §1

AURKC = molecular target: T6, AURKC (Homo sapiens, UniProt Q9UQB9); experiment: scanMAX Kinase panel (DiscoverX); format: binding; details: read-out: % Cont @ 1 uM
T6 construct: purchased DiscoverX scanMAX Kinase panel
Protocol: as §1

AXL = molecular target: T7, AXL (Homo sapiens, UniProt P30530); experiment: scanMAX Kinase panel (DiscoverX); format: binding; details: read-out: % Cont @ 1 uM
T7 construct: purchased DiscoverX scanMAX Kinase panel
Protocol: as §1

DDR1 = molecular target: T8, DDR1 (Homo sapiens, UniProt Q08345); experiment: scanMAX Kinase panel (DiscoverX); format: binding; details: read-out: % Cont @ 1 uM
T8 construct: purchased DiscoverX scanMAX Kinase panel
Protocol: as §1

DLK = molecular target: T9, DLK (Homo sapiens, UniProt Q12852); experiment: scanMAX Kinase panel (DiscoverX); format: binding
T9 construct: purchased DiscoverX scanMAX Kinase panel
Protocol: as §1

EGFR(E746-A750del) = molecular target: T10, EGFR(E746-A750del) (Homo sapiens, UniProt P00533, DEL746-750); experiment: scanMAX Kinase panel (DiscoverX); format: binding
T10 construct: purchased DiscoverX scanMAX Kinase panel
Protocol: as §1

EGFR(L861Q) = molecular target: T11, EGFR(L861Q) (Homo sapiens, UniProt P00533, L861Q); experiment: scanMAX Kinase panel (DiscoverX); format: binding
T11 construct: purchased DiscoverX scanMAX Kinase panel
Protocol: as §1

EPHA4 = molecular target: T12, EPHA4 (Homo sapiens, UniProt P54764); experiment: scanMAX Kinase panel (DiscoverX); format: binding; details: read-out: % Cont @ 1 uM
T12 construct: purchased DiscoverX scanMAX Kinase panel
Protocol: as §1

FER = molecular target: T13, FER (Homo sapiens, UniProt P16591); experiment: scanMAX Kinase panel (DiscoverX); format: binding; details: read-out: % Cont @ 1 uM
T13 construct: purchased DiscoverX scanMAX Kinase panel
Protocol: as §1

FLT3(K663Q) = molecular target: T14, FLT3(K663Q) (Homo sapiens, UniProt P36888, K663Q); experiment: scanMAX Kinase panel (DiscoverX); format: binding; details: read-out: % Cont @ 1 uM
T14 construct: purchased DiscoverX scanMAX Kinase panel
Protocol: as §1

KIT(D816H) = molecular target: T15, KIT(D816H) (Homo sapiens, UniProt P10721, D816H); experiment: scanMAX Kinase panel (DiscoverX); format: binding; details: read-out: % Cont @ 1 uM
T15 construct: purchased DiscoverX scanMAX Kinase panel
Protocol: as §1

KIT(V559D) = molecular target: T16, KIT(V559D) (Homo sapiens, UniProt P10721, V559D); experiment: scanMAX Kinase panel (DiscoverX); format: binding; details: read-out: % Cont @ 1 uM
T16 construct: purchased DiscoverX scanMAX Kinase panel
Protocol: as §1

LTK = molecular target: T17, LTK (Homo sapiens, UniProt P29376); experiment: scanMAX Kinase panel (DiscoverX); format: binding; details: read-out: % Cont @ 1 uM
T17 construct: purchased DiscoverX scanMAX Kinase panel
Protocol: as §1

LYN = molecular target: T18, LYN (Homo sapiens, UniProt P07948); experiment: scanMAX Kinase panel (DiscoverX); format: binding; details: read-out: % Cont @ 1 uM
T18 construct: purchased DiscoverX scanMAX Kinase panel
Protocol: as §1

MKNK1 = molecular target: T19, MKNK1 (Homo sapiens, UniProt Q9BUB5); experiment: scanMAX Kinase panel (DiscoverX); format: binding; details: read-out: % Cont @ 1 uM
T19 construct: purchased DiscoverX scanMAX Kinase panel
Protocol: as §1

NEK1 = molecular target: T20, NEK1 (Homo sapiens, UniProt Q96PY6); experiment: scanMAX Kinase panel (DiscoverX); format: binding; details: read-out: % Cont @ 1 uM
T20 construct: purchased DiscoverX scanMAX Kinase panel
Protocol: as §1

NEK4 = molecular target: T21, NEK4 (Homo sapiens, UniProt P51957); experiment: scanMAX Kinase panel (DiscoverX); format: binding; details: read-out: % Cont @ 1 uM
T21 construct: purchased DiscoverX scanMAX Kinase panel
Protocol: as §1

RET = molecular target: T22, RET (Homo sapiens, UniProt P07949); experiment: scanMAX Kinase panel (DiscoverX); format: binding; details: read-out: % Cont @ 1 uM
T22 construct: purchased DiscoverX scanMAX Kinase panel
Protocol: as §1

SRMS = molecular target: T23, SRMS (Homo sapiens, UniProt Q9H3Y6); experiment: scanMAX Kinase panel (DiscoverX); format: binding; details: read-out: % Cont @ 1 uM
T23 construct: purchased DiscoverX scanMAX Kinase panel
Protocol: as §1

STK36 = molecular target: T24, STK36 (Homo sapiens, UniProt Q9NRP7); experiment: scanMAX Kinase panel (DiscoverX); format: binding; details: read-out: % Cont @ 1 uM
T24 construct: purchased DiscoverX scanMAX Kinase panel
Protocol: as §1

TAOK2 = molecular target: T25, TAOK2 (Homo sapiens, UniProt Q9UL54); experiment: scanMAX Kinase panel (DiscoverX); format: binding; details: read-out: % Cont @ 1 uM
T25 construct: purchased DiscoverX scanMAX Kinase panel
Protocol: as §1

TIE1 = molecular target: T26, TIE1 (Homo sapiens, UniProt P35590); experiment: scanMAX Kinase panel (DiscoverX); format: binding; details: read-out: % Cont @ 1 uM
T26 construct: purchased DiscoverX scanMAX Kinase panel
Protocol: as §1

TNK1 = molecular target: T27, TNK1 (Homo sapiens, UniProt Q13470); experiment: scanMAX Kinase panel (DiscoverX); format: binding; details: read-out: % Cont @ 1 uM
T27 construct: purchased DiscoverX scanMAX Kinase panel
Protocol: as §1

TNK2 = molecular target: T28, TNK2 (Homo sapiens, UniProt Q07912); experiment: scanMAX Kinase panel (DiscoverX); format: binding; details: read-out: % Cont @ 1 uM
T28 construct: purchased DiscoverX scanMAX Kinase panel
Protocol: as §1

TRKC = molecular target: T29, TRKC (Homo sapiens, UniProt Q16288); experiment: scanMAX Kinase panel (DiscoverX); format: binding; details: read-out: % Cont @ 1 uM
T29 construct: purchased DiscoverX scanMAX Kinase panel
Protocol: as §1

VEGFR2 = molecular target: T30, VEGFR2 (Homo sapiens, UniProt P35968); experiment: scanMAX Kinase panel (DiscoverX); format: binding; details: read-out: % Cont @ 1 uM
T30 construct: purchased DiscoverX scanMAX Kinase panel
Protocol: as §1

YSK4 = molecular target: T31, YSK4 (Homo sapiens, UniProt Q56UN5); experiment: scanMAX Kinase panel (DiscoverX); format: binding; details: read-out: % Cont @ 1 uM
T31 construct: purchased DiscoverX scanMAX Kinase panel
Protocol: as §1

Parental (Ba/F3) = experiment: Ba/F3 cell proliferation inhibition; format: cell-based; details: BaF3; 72 hours, Cell Counting Kit-8
Summary of the method: (§2)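 Parental and T315I-Bcr-Abl Ba/F3 cells, 1×10^4 per well, exposed 72 h at 37 °C to nine 3-fold dilutions, final 0 to 10 μM. Viability by CCK-8 after 2 h, absorbance 450 nm; GI50 fitted from percent of vehicle-treated cells.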

T315I-Bcr-Abl (Ba/F3) = experiment: Ba/F3 cell proliferation inhibition; format: cell-based; details: BaF3; 72 hours, Cell Counting Kit-8
Summary of the method: as §2

T7 sequence (P30530 26-894): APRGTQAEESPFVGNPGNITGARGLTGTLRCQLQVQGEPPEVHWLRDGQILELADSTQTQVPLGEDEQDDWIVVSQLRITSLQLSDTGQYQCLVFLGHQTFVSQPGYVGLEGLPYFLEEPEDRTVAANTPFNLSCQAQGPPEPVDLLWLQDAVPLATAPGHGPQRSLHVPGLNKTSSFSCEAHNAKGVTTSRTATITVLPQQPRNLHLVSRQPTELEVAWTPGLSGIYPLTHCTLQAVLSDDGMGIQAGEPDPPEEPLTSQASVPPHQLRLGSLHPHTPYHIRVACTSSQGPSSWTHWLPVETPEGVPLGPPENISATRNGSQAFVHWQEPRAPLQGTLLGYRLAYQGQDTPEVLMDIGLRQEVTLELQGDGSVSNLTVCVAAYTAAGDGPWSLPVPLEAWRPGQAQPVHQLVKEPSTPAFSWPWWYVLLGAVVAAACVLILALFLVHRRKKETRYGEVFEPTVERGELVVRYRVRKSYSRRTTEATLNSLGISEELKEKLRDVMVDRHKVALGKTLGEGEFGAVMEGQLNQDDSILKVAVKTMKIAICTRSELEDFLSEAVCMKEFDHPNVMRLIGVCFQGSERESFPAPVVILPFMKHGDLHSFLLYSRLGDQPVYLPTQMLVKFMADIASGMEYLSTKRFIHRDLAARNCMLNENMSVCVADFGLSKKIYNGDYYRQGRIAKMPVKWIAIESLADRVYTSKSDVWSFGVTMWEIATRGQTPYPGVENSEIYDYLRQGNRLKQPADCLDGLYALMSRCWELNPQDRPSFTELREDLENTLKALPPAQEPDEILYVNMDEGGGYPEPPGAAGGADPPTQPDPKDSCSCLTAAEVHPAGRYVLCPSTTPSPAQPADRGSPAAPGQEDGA
T16 sequence (P10721 26-976 V559D): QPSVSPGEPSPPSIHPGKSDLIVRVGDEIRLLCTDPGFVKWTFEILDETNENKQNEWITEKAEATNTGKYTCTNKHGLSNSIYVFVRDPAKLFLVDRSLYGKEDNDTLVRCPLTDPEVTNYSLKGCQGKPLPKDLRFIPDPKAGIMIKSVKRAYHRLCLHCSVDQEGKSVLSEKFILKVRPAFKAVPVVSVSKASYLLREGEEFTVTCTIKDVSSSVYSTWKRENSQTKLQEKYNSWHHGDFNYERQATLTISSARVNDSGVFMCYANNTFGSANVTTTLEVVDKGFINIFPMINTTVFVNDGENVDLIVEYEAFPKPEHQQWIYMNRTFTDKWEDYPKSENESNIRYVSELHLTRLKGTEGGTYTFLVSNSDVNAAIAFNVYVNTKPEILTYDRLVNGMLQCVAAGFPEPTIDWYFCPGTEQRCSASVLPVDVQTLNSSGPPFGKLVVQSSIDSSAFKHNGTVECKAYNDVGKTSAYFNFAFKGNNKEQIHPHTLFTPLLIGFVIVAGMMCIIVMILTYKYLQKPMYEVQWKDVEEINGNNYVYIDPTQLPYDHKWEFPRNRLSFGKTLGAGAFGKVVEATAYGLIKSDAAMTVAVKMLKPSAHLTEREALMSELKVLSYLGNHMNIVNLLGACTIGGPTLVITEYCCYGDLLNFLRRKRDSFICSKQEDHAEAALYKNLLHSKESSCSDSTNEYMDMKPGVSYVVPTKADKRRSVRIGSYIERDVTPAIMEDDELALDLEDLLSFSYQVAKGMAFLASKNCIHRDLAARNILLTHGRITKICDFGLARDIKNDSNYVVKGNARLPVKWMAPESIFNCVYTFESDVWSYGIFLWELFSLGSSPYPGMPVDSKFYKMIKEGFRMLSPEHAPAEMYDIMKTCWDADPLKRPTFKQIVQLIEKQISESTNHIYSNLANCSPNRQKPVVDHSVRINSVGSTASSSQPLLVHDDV
T5 sequence (Q96GD4 whole entry): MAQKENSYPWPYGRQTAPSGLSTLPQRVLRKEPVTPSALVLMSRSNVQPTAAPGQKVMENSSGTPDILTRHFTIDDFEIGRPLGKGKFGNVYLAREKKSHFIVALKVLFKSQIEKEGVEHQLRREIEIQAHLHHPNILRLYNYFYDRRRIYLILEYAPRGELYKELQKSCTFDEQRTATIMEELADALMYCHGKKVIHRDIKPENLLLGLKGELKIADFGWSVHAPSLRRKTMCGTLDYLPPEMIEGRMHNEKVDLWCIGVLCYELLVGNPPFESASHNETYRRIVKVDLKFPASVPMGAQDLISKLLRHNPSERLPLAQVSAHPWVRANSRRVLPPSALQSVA
T4 sequence (P42684 whole entry): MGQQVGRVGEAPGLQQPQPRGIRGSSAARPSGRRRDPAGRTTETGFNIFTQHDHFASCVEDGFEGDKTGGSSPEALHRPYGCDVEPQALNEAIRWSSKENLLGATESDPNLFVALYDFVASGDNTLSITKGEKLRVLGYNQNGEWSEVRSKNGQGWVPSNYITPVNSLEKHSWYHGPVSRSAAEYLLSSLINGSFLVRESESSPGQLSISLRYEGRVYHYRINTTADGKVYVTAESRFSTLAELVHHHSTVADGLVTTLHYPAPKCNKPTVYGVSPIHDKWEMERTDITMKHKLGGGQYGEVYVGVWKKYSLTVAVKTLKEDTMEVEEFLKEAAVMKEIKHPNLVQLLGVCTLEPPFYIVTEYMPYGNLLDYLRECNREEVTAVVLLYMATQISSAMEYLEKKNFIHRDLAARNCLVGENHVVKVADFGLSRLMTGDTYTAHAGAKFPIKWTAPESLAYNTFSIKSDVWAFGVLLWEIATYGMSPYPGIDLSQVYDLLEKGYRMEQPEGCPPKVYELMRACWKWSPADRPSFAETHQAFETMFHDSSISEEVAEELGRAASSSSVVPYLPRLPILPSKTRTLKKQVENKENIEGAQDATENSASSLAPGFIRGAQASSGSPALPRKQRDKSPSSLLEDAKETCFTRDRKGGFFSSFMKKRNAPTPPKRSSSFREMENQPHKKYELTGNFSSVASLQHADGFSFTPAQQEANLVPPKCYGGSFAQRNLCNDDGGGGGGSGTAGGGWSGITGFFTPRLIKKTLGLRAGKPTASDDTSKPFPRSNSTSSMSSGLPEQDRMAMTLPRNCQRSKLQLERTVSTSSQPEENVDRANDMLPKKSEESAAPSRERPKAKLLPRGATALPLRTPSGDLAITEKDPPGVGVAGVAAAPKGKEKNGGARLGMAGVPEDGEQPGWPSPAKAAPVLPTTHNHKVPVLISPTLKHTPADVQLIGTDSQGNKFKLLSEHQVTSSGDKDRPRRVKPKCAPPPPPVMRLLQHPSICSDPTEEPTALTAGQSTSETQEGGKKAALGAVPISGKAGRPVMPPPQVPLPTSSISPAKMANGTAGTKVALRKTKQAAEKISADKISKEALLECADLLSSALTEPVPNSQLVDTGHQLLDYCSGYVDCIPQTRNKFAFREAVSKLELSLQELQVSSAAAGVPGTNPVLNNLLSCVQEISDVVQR
T21 sequence (P51957 whole entry): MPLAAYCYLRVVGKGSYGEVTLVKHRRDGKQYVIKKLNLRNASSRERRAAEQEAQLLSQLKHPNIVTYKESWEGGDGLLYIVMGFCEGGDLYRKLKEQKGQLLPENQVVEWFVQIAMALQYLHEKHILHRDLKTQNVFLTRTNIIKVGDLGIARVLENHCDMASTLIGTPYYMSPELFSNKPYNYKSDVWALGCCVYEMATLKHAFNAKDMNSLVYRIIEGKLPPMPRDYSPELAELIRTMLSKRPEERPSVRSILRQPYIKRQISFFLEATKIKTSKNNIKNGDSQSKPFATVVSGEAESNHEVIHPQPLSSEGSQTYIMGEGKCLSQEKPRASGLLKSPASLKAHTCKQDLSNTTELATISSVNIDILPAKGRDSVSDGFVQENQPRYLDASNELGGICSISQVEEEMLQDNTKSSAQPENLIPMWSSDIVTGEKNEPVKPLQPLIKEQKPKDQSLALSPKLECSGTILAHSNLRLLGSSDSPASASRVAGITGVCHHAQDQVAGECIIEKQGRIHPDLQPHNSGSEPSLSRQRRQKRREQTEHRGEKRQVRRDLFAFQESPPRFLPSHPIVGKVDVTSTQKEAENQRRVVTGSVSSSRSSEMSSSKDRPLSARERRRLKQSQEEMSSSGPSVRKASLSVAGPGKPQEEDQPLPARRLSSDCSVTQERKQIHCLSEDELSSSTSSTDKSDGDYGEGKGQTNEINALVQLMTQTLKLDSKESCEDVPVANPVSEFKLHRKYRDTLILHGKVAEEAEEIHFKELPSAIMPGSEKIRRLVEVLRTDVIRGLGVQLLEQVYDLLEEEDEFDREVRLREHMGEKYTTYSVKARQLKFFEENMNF
T29 sequence (Q16288 32-839): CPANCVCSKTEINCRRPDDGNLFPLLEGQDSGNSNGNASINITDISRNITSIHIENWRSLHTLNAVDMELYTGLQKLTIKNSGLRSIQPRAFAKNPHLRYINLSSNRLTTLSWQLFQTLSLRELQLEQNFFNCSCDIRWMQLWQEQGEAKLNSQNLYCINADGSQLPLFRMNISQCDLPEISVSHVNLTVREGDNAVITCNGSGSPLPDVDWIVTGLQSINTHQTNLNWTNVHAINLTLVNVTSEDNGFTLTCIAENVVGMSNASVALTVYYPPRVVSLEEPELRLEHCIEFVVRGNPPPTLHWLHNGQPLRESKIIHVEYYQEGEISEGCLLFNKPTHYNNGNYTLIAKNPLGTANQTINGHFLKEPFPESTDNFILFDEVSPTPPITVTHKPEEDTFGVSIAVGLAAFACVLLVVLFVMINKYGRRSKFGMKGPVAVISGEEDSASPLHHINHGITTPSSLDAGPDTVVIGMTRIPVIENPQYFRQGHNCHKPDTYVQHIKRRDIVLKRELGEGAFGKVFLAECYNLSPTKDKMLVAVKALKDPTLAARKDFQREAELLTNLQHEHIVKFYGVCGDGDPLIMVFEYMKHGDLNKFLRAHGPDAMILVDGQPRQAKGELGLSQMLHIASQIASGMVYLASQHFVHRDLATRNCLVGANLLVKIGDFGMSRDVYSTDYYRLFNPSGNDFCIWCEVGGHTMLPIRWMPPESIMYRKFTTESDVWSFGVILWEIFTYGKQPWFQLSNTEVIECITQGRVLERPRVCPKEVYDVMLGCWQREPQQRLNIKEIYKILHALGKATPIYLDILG
T15 sequence (P10721 26-976 D816H): as the sequence (P10721 26-976 V559D) above, with D534V, D791H counted along it

SMILES	% Cont @ 1 uM (CDC2L5)	remaining binding at 1 µM [1]	remaining binding at 1 µM (ABL1-phosphorylated)	remaining binding at 1 µM (ABL2)	remaining binding at 1 µM (AURKB)	remaining binding at 1 µM (AURKC)	remaining binding at 1 µM (AXL)	remaining binding at 1 µM (DDR1)	% Cont @ 1 uM (DLK)	% Cont @ 1 uM (EGFR(E746-A750del))	% Cont @ 1 uM (EGFR(L861Q))	remaining binding at 1 µM (EPHA4)	remaining binding at 1 µM (FER)	remaining binding at 1 µM (FLT3(K663Q))	percent of control binding at 1 µM (KIT(D816H))	remaining binding at 1 µM (KIT(V559D))	remaining binding at 1 µM (LTK)	percent of control binding at 1 µM (LYN)	remaining binding at 1 µM (MKNK1)	remaining binding at 1 µM (NEK1)	further results
Cc1cn(-c2cc(NC(=O)c3cc(C#Cc4cnc5c(Nc6cnn(C)c6)cccn45)c(C)cc3F)cc(C(C)(C)C#N)c2)cn1 [Example 1, N-(3-(2-cyanopropane-2-yl)-5-(4-methyl-1H-imidazol-1-yl)phenyl)-2-fluoro-4-methyl-5-((8-((1-methyl-1H-pyrazol-4-yl)amino)imidazo[1,2-a]pyridin-3-yl)ethynyl)benzamide]	21%	1.3%	0.45%	0.4%	26%	27%	14.4%	0.15%	5.9%	0%	6.7%	26%	10%	10.8%	12%	0%	3.4%	0.5%	23%	34%	remaining binding at 1 µM (NEK4): 28%; remaining binding at 1 µM (RET): 0%; remaining binding at 1 µM (SRMS): 1.2%; remaining binding at 1 µM (STK36): 20%; remaining binding at 1 µM (TAOK2): 20%; remaining binding at 1 µM (TIE1): 3.5%; remaining binding at 1 µM (TNK1): 30%; remaining binding at 1 µM (TNK2): 31%; remaining binding at 1 µM (TRKC): 0.05%; remaining binding at 1 µM (VEGFR2): 6.1%; remaining binding at 1 µM (YSK4): 0.3%; GI50 (Parental (Ba/F3)): > 5000 nM; GI50 (T315I-Bcr-Abl (Ba/F3)): < 50 nM
Cc1cn(-c2cc(NC(=O)c3cc(C#Cc4cnc5c(Nc6cnn(C)c6)cccn45)c(C)cc3F)cc(C(F)(F)F)c2)cn1 [Example 4, 2-fluoro-4-methyl-N-(3-(4-methyl-1H-imidazol-1-yl)-5-(trifluoromethyl)phenyl)-5-((8-((1-methyl-1H-pyrazol-4-yl)amino)imidazo[1,2-a]pyridin-3-yl)ethynyl)benzamide]	60%	14%	8.4%	2.9%	57%	39%	1.4%	0%	89%	56%	53%	28%	71%	2.8%	53%	0.25%	8.7%	4.7%	78%	100%	remaining binding at 1 µM (NEK4): 90%; remaining binding at 1 µM (RET): 0.2%; remaining binding at 1 µM (SRMS): 54%; remaining binding at 1 µM (STK36): 45%; remaining binding at 1 µM (TAOK2): 35%; remaining binding at 1 µM (TIE1): 4.1%; remaining binding at 1 µM (TNK1): 31%; remaining binding at 1 µM (TNK2): 91%; remaining binding at 1 µM (TRKC): 1.4%; remaining binding at 1 µM (VEGFR2): 36%; remaining binding at 1 µM (YSK4): 3%; GI50 (Parental (Ba/F3)): > 5000 nM; GI50 (T315I-Bcr-Abl (Ba/F3)): < 50 nM

From US12673945B2, “3-((8-((1H-pyrazol-4-yl)amino)imidazo[1,2-a]pyridin-3-yl)ethinyl)-n-phenylbenzamide derivative, method for preparing same, and pharmaceutical composition containing same as active ingredient for prevention or treatment of cancer” (DAEGU-GYEONGBUK MEDICAL INNOVATION FOUNDATION, priority 2020, dated 2026)
